Assay results published in US7090874B2, “Ligand for peroxisome proliferator-activated receptor” (Kaneka Corporation, priority 2001, dated 2006).

How the values were obtained:
[1] = test system: streptozotocin-induced diabetic rats; conditions: diet containing 0.5% curcumin; cited from earlier work
KK-Ay mice = experiment: Effect in KK-Ay model mice of type-II diabetes mellitus (body weight, blood glucose); type: in vivo, mouse; conditions: for Blood Glucose Level / Mouse Body weight: diet with 0.04% pioglitazone or 0.5% curcumin, mean ± SD
Experimental: KK-Ay mice, a model of genetically obese and type-II diabetic animals, were used to evaluate the effect of curcumin. Pioglitazone, a drug for treating diabetes mellitus, was used as a positive control.
KK-Ay mice (females, 6 weeks old) were divided into 3 groups (5 animals per group). By using a normal diet (product of Oriental Yeast Co. Ltd., Table 3) as a base feed, three types of feeds, i.e., a diet with out any additives, with pioglitazone and with curcumin, were prepared. Mice were placed in an environment in which they were freely accessible to a diet without any additives (control group), with pioglitazone (pioglitazone-added group) or with curcumin (curcumin-added group) for 4 weeks. Pioglitazone used was obtained by grinding Actos tablet 30 (30 mg pioglitazone per tablet, Takeda Chemical Industries Ltd.) in an agate mortar. The ground Actos tablet was then added to the normal diet at a dose of 0.04% pioglitazone. Curcumin was added to the normal diet at a dose of 0.5% curcumin.
During feeding, a small amount of blood was collected from the caudal vein of mice every week to determine blood glucose level using a simple bloodglucose level analyzer GLUTESTACE (Sanwa Kagaku Kenkyusho Co., Ltd.).

rats = rats which received curcumin; cited from earlier work
[2] = biological target: T1, mouse PPARγ ligand binding domain (Mus musculus, UniProt P37238); experiment: PPARγ ligand activity: GAL4-mPPARγ LBD chimera luciferase reporter assay in CV-1 cells; type: cell-based; conditions: for PPARγ ligand activities (dependence on concentration): 2-10 μg/ml; for PPARγ ligand activity: relative to untreated control (DMSO)=1.00, mean ± SD, n=4
T1 construct: expressed in transfected cells; host or cells: CV-1 cells (African green monkey kidney)
T1 sequence (P37238 174-475 isoform P37238-2): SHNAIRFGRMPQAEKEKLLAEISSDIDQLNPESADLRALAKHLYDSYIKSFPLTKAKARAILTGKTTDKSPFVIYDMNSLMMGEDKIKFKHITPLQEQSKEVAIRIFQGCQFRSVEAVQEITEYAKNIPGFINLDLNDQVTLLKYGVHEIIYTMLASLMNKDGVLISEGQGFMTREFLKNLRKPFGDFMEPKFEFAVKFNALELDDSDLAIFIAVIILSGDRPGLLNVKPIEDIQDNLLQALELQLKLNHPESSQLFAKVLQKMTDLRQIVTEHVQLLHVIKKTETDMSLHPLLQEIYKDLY
Experimental: CV-1 cells (cultured cells derived from male African green monkey kidney) were inoculated into a 96-well culture plate at 6×10^3 cells/well, and incubated at 37° C. for 24 hours under 5% CO2 conditions. As a medium, DMEM (Dulbecco's Modified Eagle Medium, product of GIBCO) containing 10% FBS (fetal bovine serum), 10 ml/L penicillin-streptomycin (5000 IU/ml and 5000 μg/ml, respectively, product of GIBCO), 37 mg/L ascorbic acid (product of Wako Pure Chemical Industries, Ltd.) was used. Cells were washed with OPTI-MEM (product of GIBCO), a serum-free medium, and transfected with pM-mPPARγ and 4×USAg-luc using LIPOFECTAMINE PLUS™ (product of GIBCO), a reagent for transfection of genes using a cationic lipid. […] The 4×UASg-luc is a reporter plasmid incorporated luciferase gene with 4-time-repeated responsive element (UASg) of GAL4 ligated thereto at the upstream end thereof. At approximately 24 hours after the transfection, the medium was replaced by a medium containing each sample (n=4) and cells were incubated for an additional 2 hours. Each sample used was dissolved in dimethyl sulfoxide (DMSO) and DMSO was used as an untreated control sample. […] Cells were washed with Ca, Mg-containing phosphate buffered saline (PBS+) and added with LUCLITE™ (product of Packard), a reagent for determination of luminescence using luciferase. Then, the luminescent intensity by expressed luciferase was determined in a TOPCOUNT™ Microplate Scintillation/Luminescence Counter (product of Packard).
The luminescent intensity was determined in the control group in the same way as in the test groups, but using pM (a plasmid lacking PPARγ ligand binding domain gene) instead of pM-mPPARγ. The ratio (test group/control group) of the average luminescent intensity between the test and control groups (n=4) was determined for each sample, and the relative activity of test sample. against the untreated control sample was determined as the PPARγ ligand activity of the sample.

C57BL/6J mice = experiment: Effect in model mice of diet-induced obesity (adipose tissue weights); type: in vivo, mouse
Experimental: C57BL/6J mice (females, 8 weeks old) were freely accessible to a high fat/high sugar diet (Oriental Yeast Co., Ltd., Table 6) for 8 weeks to obtain dietary obese animals. By using a normal diet (Oriental Yeast Co. Ltd., Table 3) as a base feed, two types of feeds, i.e., a diet without any additives and with 0.5% curcumin, were prepared. Next, said mice were divided into 2 groups (7 animals per group), and each group was freely accessible to a diet without any additives (control group) or with 0.5% curcumin (curcumin group) for 4 weeks. After an overnight fasting, mice were subjected to abdominal section under ether anesthesia to collect blood from the abdominal aorta, and then sacrificed. Then, adipose tissues were collected from the tissues around uterus, kidney and mesentery, and their weights were determined. The sum of the weights of periuterine, perirenal and mesenteric adipose tissues was determined as the total amount of intra-abdominal adipose tissue.

[3] = diet-induced obese C57BL/6J mice, 0.5% curcumin diet for 4 weeks, mean ± SD

Compound | Blood Glucose Level (KK-Ay mice; After 1 week) | Mouse Body weight (KK-Ay mice; After 1 week) | Blood Glucose Level (KK-Ay mice; After 2 weeks) | Mouse Body weight (KK-Ay mice; After 2 weeks) | Blood Glucose Level (KK-Ay mice; After 3 weeks) | Mouse Body weight (KK-Ay mice; After 3 weeks) | Blood Glucose Level (KK-Ay mice; After 4 weeks) | Mouse Body weight (KK-Ay mice; After 4 weeks) | Blood Glucose Level (KK-Ay mice; Start of feeding) | Mouse Body weight (KK-Ay mice; Start of feeding) | PPARγ ligand activities (dependence on concentration) [2] | PPARγ ligand activity ([2]; added concentration 2 μg/ml) | PPARγ ligand activity ([2]; added concentration 5 μg/ml) | PPARγ ligand activity ([2]; added concentration 10 μg/ml) | further results
COc1cc(/C=C/C(=O)/C=C(O)/C=C/c2ccc(O)c(OC)c2)ccc1O [Compound 1, Curcumin] | 191 ± 18 mg/dL | 34.7 ± 1.1 g | 222 ± 46 mg/dL | 39.8 ± 0.7 g | 348 ± 125 mg/dL | 42.8 ± 0.9 g | 344 ± 105 mg/dL | 44.7 ± 1.0 g | 139 ± 7 mg/dL | 25.5 ± 0.7 g | concentration-dependent | 2.36 ± 0.94 | 3.67 ± 1.06 | 4.16 ± 1.10 | Cholesterol, triglyceride and phospholipid levels in blood [1]: reduced; Renal lesions associated with diabetes mellitus [1]: amelioration; Elevation of blood glucose level compared with control group (KK-Ay mice; 4 weeks feeding): suppressed significantly; Mouse body weight change compared with control group (KK-Ay mice; 4 weeks feeding): without any significant difference; Activity of acyl-CoA oxidase (β-oxidation promotive enzyme) (rats): enhanced; Triglyceride accumulation in the liver (rats): inhibition; Body weight compared with control group (C57BL/6J mice): no significant difference; Weights of periuterine, perirenal, mesenteric and intra-abdominal adipose tissues compared with control group (C57BL/6J mice): significantly reduced; Adipose tissue per body weight: Mesenteric adipose tissue (c) (C57BL/6J mice; [3]): 0.39 ± 0.11 % by weight; Adipose tissue per body weight: Perirenal adipose tissue (b) (C57BL/6J mice; [3]): 0.46 ± 0.15 % by weight; Adipose tissue per body weight: Periuterine adipose tissue (a) (C57BL/6J mice; [3]): 0.8 ± 0.21 % by weight; Body weight after feeding (C57BL/6J mice; [3]): 22.9 ± 0.9 g; Adipose tissue per body weight: Intra-abdominal adipose tissue (a + b + c) (C57BL/6J mice; sum of periuterine, perirenal and mesenteric, diet-induced obese C57BL/6J mice, 0.5% curcumin diet for 4 weeks, mean ± SD): 1.65 ± 0.42 % by weight
CCc1ccc(CCOc2ccc(CC3SC(=O)NC3=O)cc2)nc1 (stereo not drawn) [Pioglitazone, reference compound] | 163 ± 23 mg/dL | 36.7 ± 1.0 g | 182 ± 9 mg/dL | 39.9 ± 1.2 g | 166 ± 18 mg/dL | 42.3 ± 1.2 g | 153 ± 21 mg/dL | 43.8 ± 1.4 g | 151 ± 9 mg/dL | 26.9 ± 1.0 g |  |  |  |  | 
Demethoxycurcumin [Compound 2] |  |  |  |  |  |  |  |  |  |  | concentration-dependent | 2.17 ± 0.39 | 4.25 ± 0.77 | 4.41 ± 0.35 | 
Bisdemethoxycurcumin [Compound 3] |  |  |  |  |  |  |  |  |  |  | concentration-dependent | 1.88 ± 0.33 | 3.55 ± 0.38 | 4.08 ± 0.46 | 
